Laboratory results taken from patent publication US9061028B2, “Process for the preparation of Nilotinib” (Natco Pharma Limited, priority 2012, dated 2015).
Structures can show the parent of a compound that is named as a salt.

Tests used:
[1] = Polymorph stability under accelerated stress conditions (40±2° C., 75±5% RH), by XRD; type: physicochemical; settings: accelerated high humidity stress conditions
[2] = Thermal stability of polymorph form on heating at 60-70° C., examined by XRPD; type: physicochemical; settings: for Polymorph form detected after heating: oil bath 60-70° C., XRPD

XRD spectra after storage [1]: essentially the same and unchanged | Hygroscopicity (40° C./75% RH): non-hygroscopic | Final moisture content after 60 days 40° C. at humidity of 75% (60 days, 40° C./75% RH, karl-fischer): 5.2% | Initial moisture Content (%) (before storage, karl-fischer): 5.26% | Stability to heat ([2]; 70° C./40 hours): stable to heat | Polymorph form detected after heating ([2]; time of heating 10 hours): XRD pattern unchanged | Polymorph form detected after heating ([2]; time of heating 20 hours): XRD pattern unchanged | Polymorph form detected after heating ([2]; time of heating 30 hours): XRD pattern unchanged | Polymorph form detected after heating ([2]; time of heating 40 hours): XRD pattern unchanged
Compound: Cc1cn(-c2cc(NC(=O)c3ccc(C)c(Nc4nccc(-c5cccnc5)n4)c3)cc(C(F)(F)F)c2)cn1 [Nilotinib hydrochloride]
